Strand notation (5' to 3'): a small letter for the sugar, then the base; units joined by * are phosphorothioate-linked, units joined directly phosphodiester-linked; [ ] holds rarer units or linkages, { } end groups; capitals alone tell only the bases. e = 2'-O-(2-methoxyethyl) (MOE); [5mC] = 5-methylcytosine; d = 2'-deoxy (DNA)
Tested on: human PKK mRNA
Assay: Antisense inhibition of human PKK mRNA in HepaRG cells, 5,000 nM (Example 2)
Format: cell-based
In short: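 Chimeric MOE gapmers with full phosphorothioate backbones were tested once at 5,000 nM in electroporated HepaRG cells. After about 24 hours, quantitative PCR measured PKK mRNA relative to untreated control cells.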

[1] = HepaRG cells, electroporation with 5,000 nM antisense oligonucleotide, approximately 24 hours, PKK mRNA by RT-PCR (RTS3454), relative to untreated control cells, Table 5 experiment
[2] = HepaRG cells, 5,000 nM antisense oligonucleotide, 5-10-5 gapmers, Table 16
[3] = HepaRG cells, 5,000 nM antisense oligonucleotide, 5-10-5 gapmers, Table 17
[4] = Table 9 experiment, HepaRG cells, 20,000 cells per well, electroporation with 5,000 nM antisense oligonucleotide, approx. 24 hours, PKK mRNA by RT-PCR (RTS3454), relative to untreated control cells
[5] = Table 10 experiment, HepaRG cells, 20,000 cells per well, electroporation with 5,000 nM antisense oligonucleotide, approx. 24 hours, PKK mRNA by RT-PCR (RTS3454), relative to untreated control cells
[6] = HepaRG cells, electroporation, 5,000 nM antisense oligonucleotide, approx. 24 hours, primer probe set RTS3454, relative to untreated control cells, Table 12
[7] = Table 13, human PKK mRNA in HepaRG cells, 5-10-5 gapmers
[8] = HepaRG cells, electroporation, 5,000 nM antisense oligonucleotide, approx. 24 hours, primer probe set RTS3454, relative to untreated control cells, Table 11
[9] = HepaRG cells, electroporation with 5,000 nM antisense oligonucleotide, approximately 24 hours, PKK mRNA by RT-PCR (RTS3454), relative to untreated control cells, Table 6 experiment
[10] = human PKK mRNA in HepaRG cells, 5-10-5 gapmers, Table 14
[11] = human PKK mRNA, HepaRG cells, 5,000 nM antisense oligonucleotide, Table 18

547285 (antisense eA*e[5mC]*eT*eG*eT*dA*dG*d[5mC]*dA*dA*dA*d[5mC]*dA*dA*dG*eG*eA*eA*eA*eT) [compound 547285]
% inhibition [1]: 51%

547687 (antisense eA*e[5mC]*eT*eG*eT*d[5mC]*d[5mC]*dT*dA*dT*dA*dA*d[5mC]*dT*dA*eT*eA*eT*e[5mC]*eA) [compound 547687]
% inhibition [2]: 41%

547743 (eG*eG*eT*eG*eG*dT*dG*dG*dG*dA*dT*dT*dG*dG*dT*eG*eG*e[5mC]*eG*eG; antisense) [compound 547743]
% inhibition [3]: 61%

546330 (antisense eT*eT*eT*e[5mC]*eT*d[5mC]*d[5mC]*dT*dT*d[5mC]*dG*dA*dG*dA*dA*eG*e[5mC]*e[5mC]*e[5mC]*e[5mC]) [compound 546330]
% inhibition [4]: 55% | % inhibition [5]: 67%

547547 (antisense eG*e[5mC]*eA*eT*eA*d[5mC]*dT*d[5mC]*dG*d[5mC]*d[5mC]*dT*dT*dT*dG*eT*eG*eA*eT*eG) [compound 547547]
% inhibition [6]: 42%

546735 (e[5mC]*eA*eA*e[5mC]*e[5mC]*dT*dG*dT*d[5mC]*d[5mC]*dA*dT*dT*d[5mC]*d[5mC]*e[5mC]*eT*eG*eG*eG; antisense) [compound 546735]
% inhibition [7]: 46%

547678 (antisense eT*eA*e[5mC]*e[5mC]*eT*dA*dT*dA*dT*d[5mC]*dA*d[5mC]*dT*dG*dT*eA*eA*e[5mC]*eT*eA) [compound 547678]
% inhibition [2]: 21%

547553 (antisense eT*eG*e[5mC]*eT*e[5mC]*d[5mC]*d[5mC]*d[5mC]*dA*dT*dG*d[5mC]*dA*dT*dA*e[5mC]*eT*e[5mC]*eG*e[5mC]) [compound 547553]
% inhibition [6]: 64%

546784 (eG*eG*e[5mC]*eA*eG*dG*dG*dA*dG*dG*dT*dG*dG*dA*dT*eT*eA*eT*eT*e[5mC]; antisense) [compound 546784]
% inhibition [7]: 58%

547559 (eG*eA*eG*e[5mC]*eA*d[5mC]*dA*dG*dA*dT*d[5mC]*dT*d[5mC]*dT*dT*e[5mC]*eA*eA*eG*eT; antisense) [compound 547559]
% inhibition [7]: 69%

547411 (e[5mC]*eA*eT*e[5mC]*eT*dT*dT*dG*dT*dG*d[5mC]*dA*dA*dG*dT*e[5mC]*eT*e[5mC]*eT*eT; antisense) [compound 547411]
% inhibition (Table 8, HepaRG cells, electroporation with 5,000 nM antisense oligonucleotide, approx. 24 hours, PKK mRNA by RT-PCR (RTS3454), relative to untreated control cells): 79%

547497 (antisense eA*e[5mC]*eT*eG*e[5mC]*dT*dT*d[5mC]*dT*d[5mC]*dA*dT*dG*d[5mC]*dT*eG*eG*eT*eG*eA) [compound 547497]
% inhibition [8]: 68%

546171 (antisense e[5mC]*eT*eA*eT*e[5mC]*dT*dT*dT*d[5mC]*dA*dA*dG*dA*dA*dG*e[5mC]*eA*eA*e[5mC]*e[5mC]) [compound 546171]
% inhibition [1]: 81%

546131 (eA*eT*eG*eA*eA*d[5mC]*dG*dG*dT*d[5mC]*dT*dT*d[5mC]*dA*dA*eG*e[5mC]*eT*eG*eT; antisense) [compound 546131]
% inhibition [1]: 75%

547359 (e[5mC]*eG*eG*eG*eA*d[5mC]*dT*dG*dT*dA*d[5mC]*dT*dT*dT*dA*eA*eT*eA*eG*eG; antisense) [compound 547359]
% inhibition [9]: 81%

546166 (eT*eG*eT*e[5mC]*eA*dT*dT*dG*dA*dT*dT*dG*dA*dA*d[5mC]*eT*eT*eG*e[5mC]*eT; antisense) [compound 546166]
% inhibition [1]: 70%

546406 (eT*eG*eT*e[5mC]*e[5mC]*dT*dG*dT*d[5mC]*dA*dA*d[5mC]*dA*dT*dA*eT*eT*e[5mC]*e[5mC]*eA; antisense) [compound 546406]
% inhibition [6]: 80%

546193 (antisense e[5mC]*eA*eT*eT*eA*dA*dA*dA*dT*dT*dG*dA*d[5mC]*dT*d[5mC]*e[5mC]*eT*e[5mC]*eT*e[5mC]) [compound 546193]
% inhibition [9]: 57%

547319 (antisense eG*eA*eA*eT*eG*dT*d[5mC]*d[5mC]*dA*dG*dA*dA*dA*d[5mC]*dT*eG*e[5mC]*eA*e[5mC]*e[5mC]) [compound 547319]
% inhibition [9]: 62%

546146 (eT*eG*eA*eG*eT*d[5mC]*dA*dG*dA*d[5mC]*dA*dT*d[5mC]*d[5mC]*dA*e[5mC]*eA*eG*eG*eA; antisense) [compound 546146]
% inhibition [1]: 72%

547495 (antisense eG*e[5mC]*eT*eG*eG*dT*dG*dA*d[5mC]*dT*dG*d[5mC]*dA*dT*d[5mC]*eT*eG*eA*eG*e[5mC]) [compound 547495]
% inhibition [8]: 61%

547080 (eG*eT*eG*e[5mC]*eA*dA*dG*dA*d[5mC]*d[5mC]*dT*dT*dG*d[5mC]*dT*eT*eG*e[5mC]*e[5mC]*eA; antisense) [compound 547080]
% inhibition [3]: 54%

546213 (antisense e[5mC]*e[5mC]*e[5mC]*eT*eG*dG*d[5mC]*dA*dA*d[5mC]*dA*dT*d[5mC]*d[5mC]*dA*e[5mC]*eA*eT*e[5mC]*eT) [compound 546213]
% inhibition [9]: 82%

547608 (antisense eT*eA*eT*eA*eA*d[5mC]*dA*dA*dT*dA*dT*d[5mC]*dA*d[5mC]*dT*eG*eT*eA*e[5mC]*e[5mC]) [compound 547608]
% inhibition [10]: 35%

546317 (antisense eA*eG*eG*eA*eG*d[5mC]*d[5mC]*dT*dG*dG*dA*dG*dT*dT*dT*eT*eA*eT*e[5mC]*eA) [compound 546317]
% inhibition [4]: 12% | % inhibition [5]: 31%

548708 (DNA eT*eA*e[5mC]*dT*dA*dG*dT*dT*dT*d[5mC]*d[5mC]*dT*dA*eT*eA*eA; antisense) [compound 548708]
% inhibition (HepaRG cells, 5,000 nM antisense oligonucleotide, human PKK mRNA, Table 18): 0%

547286 (antisense eA*eG*eA*e[5mC]*eA*dT*d[5mC]*d[5mC]*dA*d[5mC]*dA*dG*dG*dA*dA*eA*e[5mC]*eT*eG*eT) [compound 547286]
% inhibition [1]: 68%

546226 (antisense e[5mC]*e[5mC]*eA*eT*eA*d[5mC]*dA*dT*dT*dT*dG*dT*dA*dT*dA*eG*eA*eA*eT*eG) [compound 546226]
% inhibition (Table 7, HepaRG cells, electroporation with 5,000 nM antisense oligonucleotide, approx. 24 hours, PKK mRNA by RT-PCR (RTS3454), relative to untreated control cells): 37%

547748 (eG*eG*eT*eT*eG*dG*dT*dG*dG*d[5mC]*dG*dG*dG*dA*dT*e[5mC]*eG*eG*eT*eG; antisense) [compound 547748]
% inhibition [3]: 78%

546865 (eT*eA*eT*eA*eA*d[5mC]*dT*dA*dT*dA*dA*d[5mC]*dA*dA*dT*eA*eT*e[5mC]*eA*e[5mC]; antisense) [compound 546865]
% inhibition [10]: 0%

548767 (antisense eT*eA*eT*e[5mC]*dA*d[5mC]*dT*dG*dT*d[5mC]*d[5mC]*dT*dA*eT*eA*eT*e[5mC]) [compound 548767]
% inhibition [11]: 59%

546975 (eG*eG*e[5mC]*e[5mC]*eT*dG*dG*dA*dT*dA*d[5mC]*dA*dG*d[5mC]*d[5mC]*eT*eT*eT*e[5mC]*eT; antisense) [compound 546975]
% inhibition [2]: 70%

546914 (eA*eT*eA*eT*e[5mC]*dA*d[5mC]*dT*dG*dT*dA*d[5mC]*d[5mC]*dT*dA*eT*eA*eT*e[5mC]*eA; antisense) [compound 546914]
% inhibition [2]: 52%

546707 (eG*e[5mC]*eA*eA*eG*dT*d[5mC]*dA*dA*dA*dG*dA*dG*dT*dG*eT*e[5mC]*e[5mC]*eA*e[5mC]; antisense) [compound 546707]
% inhibition [6]: 73%

546374 (antisense e[5mC]*e[5mC]*eA*eG*eG*d[5mC]*dT*d[5mC]*dA*dG*dA*dA*dT*dT*dT*eG*eA*e[5mC]*eT*eT) [compound 546374]
% inhibition [8]: 50%

548783 (antisense eA*e[5mC]*e[5mC]*eT*dA*dT*dA*dA*d[5mC]*dT*dA*dT*dA*eA*e[5mC]*eA*eA) [compound 548783]
% inhibition [11]: 0%

— patent US11840686B2, “Modulation of prekallikrein (PKK) expression” (Ionis Pharmaceuticals, Inc., priority 2013, dated 2023)
